Columns and labels:
[1] = test system: anaesthetized female rabbits under conditions of vesical irritation; experiment: Activity of the striated anal sphincter (EMG-SAS) and vesical capacity in anaesthetized female rabbits under vesical irritation by diluted acetic acid; format: in vivo, rabbit
Excerpt: The effect of 4-[(2-naphthalenyl)-methoxy]-piperidine (compound A) and of its solvent (NaCl 0.9%) on the electromyographic activity of the striated anal sphincter (EMG-SAS), used as a marker of the activity of the urethral sphincter, and on the vesical capacity (VC) was studied in vivo in anaesthetized female rabbits under conditions of vesical irritation induced by intra-vesical perfusion of diluted acetic acid (Perez Martinez et al., 2006 and Haab et al., 2006). […] 16 New Zealander female white rabbits (2.5-3.5 kg) anaesthetized by intramuscular injection of a mixture of ketamin (25 mg/kg) and sylazin (10 mg/kg), were subject to cystostomy. After laparotomy by median incision, a catheter was introduced at the dome of the bladder and held in place by a purse suture. A multiperforable plug was placed at the end of the catheter, and then the catheter was internalized subcutaneously and attached at the abdomen with a silk ligature. 3 days after cystotomy, cystomanometry was performed on animals anaesthetized with halothane (2-3%). A T-tube was connected at the multiperformable plug, and then connected to a pressure sensor (Letica, PanLab) and to a micro-pump allowing perfusion of the bladder (Razel 99, Scientific Instruments). […] The micturitional profile was continuously recorded by means of a data acquisition system (PowerLab 4/25, PanLab) and the different urodynamic parameters, including vesical capacity (VC), were determined. […] The electric signal, amplified and filtered (bandwidth 1 Hz-5 kHz) was continuously recorded by means of the data acquisition system. EMG-SAS was measured during the phase for filling the bladder, in order to get rid of the parasitics related to perineal movements occurring during micturition.
A catheter was implanted at the vein of the ear in order to allow administration of compound A or of its solvent (NaCl 0.9%) in a volume of 1 mL. […] During a stabilization period (SP) of at least 60 minutes, during which the bladder was perfused, in order to induce regular micturitional cycles, two consecutive doses (1 and 3 mg/kg of compound A or of solvent were administered intravenously, at intervals of 40 minutes. For each of the tested doses, the effects of the compound A and of its solvent on EMG-SAS and on VC were expressed as a percentage of the stabilization period (mean±standard error of mean). During the stabilization period, the parameters obtained in both experimental groups (compound A and solvent) were the same (p>0.05; Kruskal-Wallis test): for EMG-SAS, 1.76±1.04 (n=8) and 1.41±0.59 activity peaks/minute (n=8), for the compound A and its solvent and for VC, respectively, 21.63±4.92 (n=8) and 18.31±2.90 mL (n=8), for the compound A and its solvent respectively. […]

[2] = test system: anaesthetized female rats under vesical irritation conditions; experiment: Vesical capacity in anaesthetized female rats under vesical irritation by diluted acetic acid; format: in vivo, rat; conditions: 2 mg/kg i.v., mean±SEM, n=8
Method: After laparotomy, a bursa was formed at the dome of the bladder, and then a catheter was introduced and ligatured at this bursa. A catheter was implanted at the jugular vein in order to allow administration of the compound A or its solvent. Cystomanometry was performed on the animals placed beforehand on a heating plate, in order to maintain their body temperature around 37° C. A 3-way valve was positioned at the end of the vesical catheter and then connected to a pump allowing perfusion of the bladder (Model “11” plus, Harvard Apparatus) and to a pressure sensor (MX 860/866 Novatrans, Medex Medical). Diluted acetic acid (0.3%) held at room temperature was perfused into the bladder (3 mL/h) in order to induce successive micturitions under vesical irritation conditions. The micturitional profile was continuously recorded by means of a data acquisition system (MacLab/8^e, AD Instruments) and the different urodynamic parameters, including vesical capacity (VC) were determined. […] The compound A (2 mg/kg) or its solvent were then injected intravenously in a volume of 1 mL administered within 5 minutes by means of a syringe pump (Model A-99, Fisher Bioblock Scientific). The effects of the compound A and of its solvent on VC were evaluated at times, 20, 40 and 60 minutes after administration and expressed as a percentage of variation of the basal value (mean±standard error of mean). In both experimental groups (compound A and solvent), the basal values of VC were the same (p>0.05; analysis of variance): 0.045±0.005 mL and 0.042±0.006 mL for the solvent (n=11) and the compound A (n=8), respectively. […] (see compound A group (n=8) in FIG. 2).

human detrusor muscle = experiment: Electrically stimulated human detrusor muscle strips in vitro
Method: The effect of the compound A and of its solvent (Krebs solution) was tested in vitro on bladder strips taken on two male patients within the scope of a radical cystectomy because of an urothelial carcinoma. The strips were mounted in baths with isolated organs, containing a Krebs solution, heated to 37° C. and oxygenated with carbogen (95% O2 and 5% CO2). After a 60 minute stabilization period, the viability of the strips was tested by performing a contraction with 80 mM KCl. After 30 minutes of wash-out and stabilization, the strips were submitted to electric field stimulation, in order to cause neurogenic contractions. The electric stimulation parameters used were the following: frequency: 30 Hz, maximum voltage, pulse duration 0.1 ms, 5 second pulse trains every 100 s. After stabilization of the neurogenic response (about 30 minutes after beginning of the electric stimulation), a range of cumulative concentration-response curves for the compound A was obtained between 0.01-100 μM. It was shown that from 10 μM, the compound A inhibits in a concentration-dependent way, the contractile response of the detrusor muscle strips to electric stimulation with inhibition percentages of 20.1±4.7% at 10 μM, 41.7±5.2% at 30 μM and 80.8±6.8% at 100 μM. Tested under the same conditions, the solvent of the compound A has an inhibiting effect of the order of 10% on the contractions of the detrusor muscle.

5-HT1A = 5-HT1A (Homo sapiens (Human), UniProt P08908); experiment: Binding test on cloned human serotoninergic receptor
Method: (§1) The affinity of the compound A was evaluated in vitro on 8 cloned human serotoninergic receptors by measuring the specific binding of the ligands to the corresponding receptors according to methods adapted from Mulheron (1994), Bryant (1996), Choi (1994), Hope (1996), Mialet (2000), Rees (1994) and Shen (1993).

5-HT2A (agonist) = 5-HT2A (agonist) (Homo sapiens (Human), UniProt P28223); experiment: as above; conditions: 5-HT2A (agonist) site
Method: as §1

5-HT2B (agonist) = 5-HT2B (agonist) (Homo sapiens (Human), UniProt P41595); experiment: as above; conditions: 5-HT2B (agonist) site
Method: as §1

5-HT2C (agonist) = 5-HT2C (agonist) (Homo sapiens (Human), UniProt P28335); experiment: as above; conditions: 5-HT2C (agonist) site
Method: as §1

5-HT3 = 5-HT3 (Homo sapiens (Human), UniProt P46098); experiment: as above
Method: as §1

5-HT4e = 5-HT4e (Homo sapiens (Human), UniProt Q13639); experiment: as above
Method: as §1

5-HT5A = 5-HT5A (Homo sapiens (Human), UniProt P47898); experiment: as above
Method: as §1

5-HT7 = 5-HT7 (Homo sapiens (Human), UniProt P34969); experiment: as above
Method: as §1

human 5-HT2C receptor = human 5-HT2C receptor (Homo sapiens (Human), UniProt P28335); experiment: Cellular functional test ([35S]GTPγS binding) on cloned human 5-HT2C receptor in CHO cells; format: cell-based
Method: The agonistic and antagonistic activities of the compound A were evaluated in vitro on the human 5-HT2C receptor expressed in Chinese hamster ovarian cells (CHO cells) in a range of concentrations comprised between 1 nM and 100 μM by quantitation of the binding of the specific ligand of the receptor, [^35S]GTPγS, according to a method adapted from Adlersberg (2000) and from Cussac (2002).

[3] = test system: 5-HT7 receptor in isolated rat bladder; experiment: Potentialization by serotonin of the neurogenic response of isolated rat bladder (5-HT7 antagonistic functional test); conditions: after incubation with 10 μM of compound A; n=6; solvent 52.7±7.3%
Method: The effect of the compound A and of its solvent (Krebs solution) on the potentialization by serotonin of the neurogenic response of isolated rat bladder was studied in vitro. Strips of detrusor muscle taken from Wistar female rats (250-300 grams) were mounted in baths with isolated organs, containing a Krebs solution, heated to 37° C. and oxygenated with carbogen (95% O2 and 5% CO2). After a 60 minute stabilization period, contraction with 80 mM KCl was achieved. After 30 minutes of wash-out and stabilization, the strips were submitted to electric field stimulation, in order to cause neurogenic contractions. The electric stimulation parameters used were the following: frequency: 5 Hz, maximal voltage, pulse duration 0.3 ms, 10 second pulse trains every 60 s. The compound A and its solvent are incubated for 60 minutes, 30 minutes without electric stimulation and 30 minutes during the phase for stabilizing the neurogenic response. After stabilization, a 5-HT cumulative concentration-response curve range was achieved between 0.01-100 μM.

adrenergic receptors α1 = experiment: Affinity for adrenergic receptors; format: binding
adrenergic receptors α2 = experiment: Affinity for adrenergic receptors; format: binding
adrenergic receptors β = experiment: Affinity for adrenergic receptors; format: binding
muscarinic receptors = experiment: Affinity for muscarinic receptors; format: binding
[4] = test system: recapture of serotonine (5-HT) as compared with that of norepinephrine (NE); conditions: selectivity, Scatton 1988; cited from earlier work
[5] = test system: recapture of serotonin as compared with that for dopamine (DA); conditions: selectivity, Scatton 1988; cited from earlier work
[6] = 1 mg/kg intravenously, relative to stabilization period

Chain of human 5-HT2C receptor (P28335 33-458): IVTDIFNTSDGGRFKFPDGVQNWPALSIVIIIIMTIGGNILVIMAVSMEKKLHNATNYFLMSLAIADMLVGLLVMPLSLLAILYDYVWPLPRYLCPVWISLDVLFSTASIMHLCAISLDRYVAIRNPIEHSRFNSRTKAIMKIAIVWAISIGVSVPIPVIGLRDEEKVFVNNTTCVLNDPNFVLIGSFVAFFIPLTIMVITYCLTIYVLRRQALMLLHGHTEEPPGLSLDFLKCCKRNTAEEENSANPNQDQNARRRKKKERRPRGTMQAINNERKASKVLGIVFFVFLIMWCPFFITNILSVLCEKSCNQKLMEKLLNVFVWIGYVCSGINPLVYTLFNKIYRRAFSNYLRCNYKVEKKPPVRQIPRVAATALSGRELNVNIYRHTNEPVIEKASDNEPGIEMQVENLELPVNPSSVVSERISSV
Chain of 5-HT2C (agonist) (P28335 33-458): as above
Chain of 5-HT7 (P34969 whole entry): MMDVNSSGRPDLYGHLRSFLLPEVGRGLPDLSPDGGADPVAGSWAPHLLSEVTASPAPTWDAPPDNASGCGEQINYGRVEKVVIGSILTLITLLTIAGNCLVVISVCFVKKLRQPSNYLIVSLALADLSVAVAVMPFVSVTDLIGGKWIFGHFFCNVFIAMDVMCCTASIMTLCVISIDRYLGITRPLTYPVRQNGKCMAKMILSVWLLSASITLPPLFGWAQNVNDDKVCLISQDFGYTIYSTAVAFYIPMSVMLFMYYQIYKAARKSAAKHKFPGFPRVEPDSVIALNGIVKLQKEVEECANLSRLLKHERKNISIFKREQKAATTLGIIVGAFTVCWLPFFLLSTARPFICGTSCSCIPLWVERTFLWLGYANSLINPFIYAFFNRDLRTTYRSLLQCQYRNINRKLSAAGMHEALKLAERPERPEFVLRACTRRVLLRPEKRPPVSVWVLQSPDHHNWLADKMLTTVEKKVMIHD
Chain of 5-HT3 (P46098 24-478): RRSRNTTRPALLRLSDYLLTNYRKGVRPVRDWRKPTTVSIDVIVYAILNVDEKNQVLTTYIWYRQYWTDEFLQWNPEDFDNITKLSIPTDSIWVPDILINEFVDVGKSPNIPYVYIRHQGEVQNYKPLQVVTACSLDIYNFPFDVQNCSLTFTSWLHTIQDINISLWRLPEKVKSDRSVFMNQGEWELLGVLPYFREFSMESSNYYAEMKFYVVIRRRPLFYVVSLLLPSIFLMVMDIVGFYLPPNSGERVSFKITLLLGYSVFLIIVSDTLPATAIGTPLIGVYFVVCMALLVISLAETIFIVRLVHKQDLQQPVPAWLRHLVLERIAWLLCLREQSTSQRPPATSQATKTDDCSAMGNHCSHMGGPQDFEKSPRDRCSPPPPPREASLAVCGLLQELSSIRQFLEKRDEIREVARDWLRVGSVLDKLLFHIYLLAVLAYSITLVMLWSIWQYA
Chain of 5-HT4e (Q13639 other isoform, or with tags, fused parts or gaps): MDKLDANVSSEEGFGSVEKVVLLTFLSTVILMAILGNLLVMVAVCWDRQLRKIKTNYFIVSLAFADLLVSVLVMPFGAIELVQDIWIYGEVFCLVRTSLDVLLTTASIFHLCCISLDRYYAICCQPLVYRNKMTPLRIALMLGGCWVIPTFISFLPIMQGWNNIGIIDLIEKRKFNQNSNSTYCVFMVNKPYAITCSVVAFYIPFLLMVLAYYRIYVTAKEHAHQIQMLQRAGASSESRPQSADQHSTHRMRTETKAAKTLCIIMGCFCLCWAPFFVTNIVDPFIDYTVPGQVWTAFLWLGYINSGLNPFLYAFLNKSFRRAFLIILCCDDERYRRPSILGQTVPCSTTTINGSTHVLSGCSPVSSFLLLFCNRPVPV
Chain of 5-HT2B (agonist) (P41595 whole entry): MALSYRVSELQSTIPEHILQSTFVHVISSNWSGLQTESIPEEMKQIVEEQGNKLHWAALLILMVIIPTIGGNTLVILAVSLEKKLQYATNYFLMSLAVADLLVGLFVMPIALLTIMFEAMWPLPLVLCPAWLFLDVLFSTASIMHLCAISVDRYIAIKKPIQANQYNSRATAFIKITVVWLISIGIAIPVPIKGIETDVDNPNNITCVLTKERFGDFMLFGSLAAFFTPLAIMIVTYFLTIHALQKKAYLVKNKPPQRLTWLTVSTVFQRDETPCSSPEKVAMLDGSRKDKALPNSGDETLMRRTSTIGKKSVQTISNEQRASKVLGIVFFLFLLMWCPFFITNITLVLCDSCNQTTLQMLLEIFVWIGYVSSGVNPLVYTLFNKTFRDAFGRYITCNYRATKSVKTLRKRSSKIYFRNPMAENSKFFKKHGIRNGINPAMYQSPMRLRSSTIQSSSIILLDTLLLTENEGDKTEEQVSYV
Chain of 5-HT2A (agonist) (P28223 whole entry): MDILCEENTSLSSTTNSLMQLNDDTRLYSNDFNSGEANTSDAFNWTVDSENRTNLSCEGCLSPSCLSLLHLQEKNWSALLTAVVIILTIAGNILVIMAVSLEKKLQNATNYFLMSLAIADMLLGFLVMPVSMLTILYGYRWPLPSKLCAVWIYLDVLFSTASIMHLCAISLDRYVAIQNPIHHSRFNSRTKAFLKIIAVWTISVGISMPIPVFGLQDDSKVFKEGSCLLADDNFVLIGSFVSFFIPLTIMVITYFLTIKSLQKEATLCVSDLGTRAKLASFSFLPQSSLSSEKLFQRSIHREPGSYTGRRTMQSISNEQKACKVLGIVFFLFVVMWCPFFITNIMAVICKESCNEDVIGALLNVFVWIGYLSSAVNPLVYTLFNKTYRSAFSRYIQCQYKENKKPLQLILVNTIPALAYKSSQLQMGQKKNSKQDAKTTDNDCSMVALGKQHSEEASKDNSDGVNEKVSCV
Chain of 5-HT5A (P47898 whole entry): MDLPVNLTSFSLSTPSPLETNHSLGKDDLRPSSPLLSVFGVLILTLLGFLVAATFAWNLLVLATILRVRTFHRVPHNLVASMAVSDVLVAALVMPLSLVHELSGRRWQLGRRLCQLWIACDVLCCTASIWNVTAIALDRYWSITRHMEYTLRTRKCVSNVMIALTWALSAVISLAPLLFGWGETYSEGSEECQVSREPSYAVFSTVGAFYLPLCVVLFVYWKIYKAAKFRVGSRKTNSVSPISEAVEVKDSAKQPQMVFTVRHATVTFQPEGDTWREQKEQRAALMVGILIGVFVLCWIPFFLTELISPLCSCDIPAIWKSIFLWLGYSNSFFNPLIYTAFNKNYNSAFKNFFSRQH
Chain of 5-HT1A (P08908 whole entry): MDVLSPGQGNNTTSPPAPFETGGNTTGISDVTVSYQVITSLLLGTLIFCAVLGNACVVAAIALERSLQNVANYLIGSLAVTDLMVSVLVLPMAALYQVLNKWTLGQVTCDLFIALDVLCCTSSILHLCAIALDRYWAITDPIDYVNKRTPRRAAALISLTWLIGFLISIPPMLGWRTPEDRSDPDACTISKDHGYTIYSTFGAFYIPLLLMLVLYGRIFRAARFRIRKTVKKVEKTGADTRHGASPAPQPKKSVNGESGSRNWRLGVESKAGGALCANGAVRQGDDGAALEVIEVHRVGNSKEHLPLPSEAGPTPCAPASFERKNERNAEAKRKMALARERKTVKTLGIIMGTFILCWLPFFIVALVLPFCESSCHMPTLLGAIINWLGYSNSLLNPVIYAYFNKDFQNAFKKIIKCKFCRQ

In the case of c1ccc2cc(COC3CCNCC3)ccc2c1 [Compound A, 4-[(2-naphthalenyl)-methoxy]-piperidine], the “effect on EMG-SAS (electromyographic activity of the striated anal sphincter)” value [1, 6] is reported as “did not induce any significant effect”, the “effect on vesical capacity (VC)” value [1, 6] is reported as “did not induce any significant effect” and the “increase in EMG-SAS, percentage of the stabilization period” value ([1]; 3 mg/kg intravenously, mean±SEM, n=7, p=0.018) is reported as 1,521.90±966.61%. For the same compound, the “increase in VC, percentage of the stabilization period” value ([1]; 3 mg/kg intravenously, mean±SEM, n=8) was 123.29±11.62%, the “increase in VC, percentage of variation of the basal value” ([2]; 20 minutes after administration) was 46.25±16.40% and the “increase in VC, percentage of variation of the basal value” ([2]; 40 minutes after administration) was 44.61±17.51%. The “increase in VC, percentage of variation of the basal value” ([2]; 60 minutes after administration) was 60.34±17.8%, the “inhibition of the contractile response of detrusor muscle strips to electric stimulation” value (shortened to “inhibition … to electric stimulation”) (human detrusor muscle; 10 μM) was 20.1±4.7% and the “inhibition … to electric stimulation” value (human detrusor muscle; 30 μM) was 41.7±5.2%. The “inhibition … to electric stimulation” value (human detrusor muscle; 100 μM) was 80.8±6.8%, the “inhibition of the specific binding of the control” value (5-HT1A) was 14% and the IC50 (5-HT2A (agonist)) was 1000 nM. The Ki (5-HT2A (agonist); Cheng Prusoff) was 620 nM, the IC50 (5-HT2B (agonist)) was 1000 nM and the Ki (5-HT2B (agonist); Cheng Prusoff) was 980 nM. For the same compound, the IC50 (5-HT2C (agonist)) was 250 nM, the Ki (5-HT2C (agonist); Cheng Prusoff) was 200 nM and the IC50 (5-HT3) was 1400 nM. For the same compound, the Ki (5-HT3; Cheng Prusoff) was 720 nM, the IC50 (5-HT4e) was 4700 nM and the Ki (5-HT4e; Cheng Prusoff) was 1600 nM. The “inhibition of the specific binding of the control” value (5-HT5A) was 1%, the IC50 (5-HT7) was 7200 nM and the Ki (5-HT7; Cheng Prusoff) was 2600 nM. The antagonistic activity (human 5-HT2C receptor; 10 μM) was 18%, the agonistic activity (human 5-HT2C receptor; 3.10^−5 M (plateau)) was 44% and the agonistic activity (human 5-HT2C receptor; 10^−4 M (plateau)) was 42%. For the same compound, the IC50 (human 5-HT2C receptor; agonistic activity, [35S]GTPγS, CHO cells, read-out: IC50 (partial agonist for the 5-HT2C receptor)) was 1500 nM, the antagonistic activity (human 5-HT2C receptor; between 1 nM and 1 μM) was “Without any significant antagonistic activity” and the “maximum response of 5-HT, % of the reference contraction induced by 80 mM KCl” value [3] was 18.7±3.2%. For the same compound, the IC50 (adrenergic receptors α1) was 40000 nM, the IC50 (adrenergic receptors α2) was 70000 nM and the IC50 (adrenergic receptors β) was 100000 nM. For the same compound, the IC50 (muscarinic receptors) was 99000 nM, the “IC50 NE/HT ratio” value [4] was 89 and the “IC50 DA/HT ratio” value [5] was 188.
